How the values were obtained:
[1] = system: elastase-induced pulmonary emphysema; assay: Morphological and functional analyses of elastase-treated mice administered with AM; type: in vivo, C57BL/6 mice; conditions: day 28
Experimental: The remaining 42 mice were used to examine whether AM improves lung structure and lung function in elastase-induced pulmonary emphysema. The mice were intratracheally injected with swine pancreatic elastase (200 units/kg) or physiological saline at random, and assigned to continuous infusion of either AM or physiological saline. Based on this protocol, the following three groups were prepared: the sham treated mice administrated with physiological saline (the sham treated group, n=14), elastase-treated mice administered with physiological saline (the physiological saline group, n=14), and elastase-treated mice administrated with AM (the AM group, n=14). Each of the above-mentioned Examples was carried out according to the guidelines of Animal Management Ethics Committee of the National Cardiovascular Center (Osaka, Japan).
In fact, in the present invention, findings about lung functions (increase in lung volume and static lung compliance) and morphological findings (increase in the average alveolar diameter) confirmed that emphysematous changes were induced in the lungs by intratracheal injection of elastase, and these findings are consistent with the results from previous studies (Hayes J A, Korthy A, Snider G L. The pathology of elastase-induced panacinar emphysema in hamsters. J Pathol 1975; 117: 1-14; Kuraki T, Ishibashi M, Takayama M, Shiraishi M, Yoshida M. A novel oral neutrophil elastase inhibitor (ONO-6818) inhibits human neutrophil elastase-induced emphysema in rats. Am J Respir Crit Care Med 2002; 166: 496-500). 28 days after the injection of elastase or physiological saline, the mice were anesthetized and their static lung compliance was measured using a computer-controlled small animal ventilator (FlexiVent; Scireq, Montreal, PQ, Canada) (n=7). Lungs were excised and then fixed for 24 hours, while the transpulmonary pressure was maintained at 25 cm H2O (n=7). The lung volume was measured by Scherle's method (Scherle W. A simple method for volumetry of organs in quantitative stereology. Mikroskopie 1970; 26: 57-60). The mean linear intercept, a morphometric parameter of pulmonary emphysema, was calculated for 20 randomly selected regions with a light microscope using a method known to those skilled in the art (Thurlbeck W M. Internal surface area and other measurements in emphysema. Thorax 1967; 22: 483-496). Morphological examination was conducted in a blind manner by three observers.
Further, paraffin sections were obtained from the lungs (n=7), and the tissue sections were stained for vWF to examine whether AM induced angiogenesis in the elastase-administered lungs. Three observers counted the number of vWF-positive blood vessels per mm^2 in a blind test manner.

[2] = system: peripheral blood mononuclear cells; assay: Dynamics of bone marrow cells after AM administration: peripheral blood mononuclear cells and Sca-1-positive cells; type: in vivo, C57BL/6 mice
Experimental: First, to investigate whether AM has an effect on the dynamics of bone marrow cells, AM or physiological saline was administered randomly to model animals. As the model animals, 48 ten-week old female C57BL/6 mice were used. The transgenic mice (C57BL/6 background) which ubiquitously express green fluorescence protein (GFP) were kindly offered by Professor Masaru Okabe (Osaka University, Japan) (Okabe M, Ikawa M, Kominami K, Nakanishi T, Nishimune Y. ‘Green mice’ as a source of ubiquitous green cells. FEBS Lett 1997; 407: 313-319).
AM (1 μg, 2 μg, or 5 μg in 100 μl physiological saline) was randomly administrated to the C57BL/6 mice (each, n=8) by intraperitoneal injection every day for five days. The control mice were similarly administered with 100 μl physiological saline every day for five days (n=8).
Furthermore, AM or physiological saline was administered to other mice (each, n=8) with a subcutaneous osmotic mini-pump (Alzet, Palo Alto, Calif.) at a delivery rate of 0.05 μg/kg/min for five days. Blood samples were collected on day 5, and mononuclear cells were isolated using Histopaque-1083 (Sigma) by a method known to those skilled in the art (Asahara T, Takahashi T, Masuda H, Kalka C, Chen D, Iwaguro H, Inai Y, Silver M, Isner J M. VEGF contributes to postnatal neovascularization by mobilizing bone marrow-derived endothelial progenitor cells. EMBO J 1999; 18: 3964-3972). The mononuclear cells were counted manually and analyzed with respect to the expression of Sca1-FITC (Sca-1-positive cells: BD Pharmingen, San Diego, Calif.). The immunofluorescence-labeled cells were analyzed by a quantitative flow cytometry using the FACSCalibur Flow Cytometer (BD Biosciences, Mountain View, Calif.). An antibody with the same isotype (BD Pharmingen) was used as a control.

[3] = system: bone marrow-derived cells in ischemic cardiac muscle; assay: Dynamic analysis of bone marrow-derived cells in a rat model of myocardial infarction; type: in vivo, GFP chimeric rats; conditions: acute myocardial infarction, AM 0.05 μg/kg/min subcutaneously for seven days vs control group
Experimental: Acute myocardial infarction was produced in GFP chimeric rats (rats expressing GFP in the bone marrow cells) by thoracotomy and then ligation of the anterior descending coronary artery (Fujii T. et al., Am J Physiol Heart Circ Physiol. 288(3): H1444-50, 2005).
After local ischemia is created in the heart by ligation, 0.05 μg/kg/min of AM (the AM group) or 0.9% physiological saline (the control group) was subcutaneously administered for seven days via an osmotic pressure pump.
After acute myocardial infarction was produced, the distributions of bone marrow-derived cells (confirmed by GFP expression), vascular endothelial cells (confirmed by vWF, an endothelial cell marker), and cardiac muscle cells (confirmed by desmin, a cardiac muscle cell marker) in the myocardial infarct area were confirmed. Further, the total sum of the GFP-expressing cell number, vWF-expressing cell number, and desmin-expressing cell number was examined to confirm the states of regeneration of blood vessel and cardiac muscle in the AM group and control group.

[4] = system: bone marrow-derived cells in the elastase-administered lungs; assay: Homing and differentiation of bone marrow cells in elastase-treated GFP-positive bone marrow chimeric mice; type: in vivo, C57BL/6 mice; conditions: AM group vs physiological saline group, day 28 after elastase injection
From the text: C57BL/6GFP-positive bone marrow chimeric mice were established for evaluating the dynamics of bone marrow cells.
The above-mentioned bone marrow chimeric mice were produced by a method known to those skilled in the art (Sata M, Saiura A, Kunisato A, Tojo A, Okada S, Tokuhisa T, Hirai H, Makuuchi M, Hirata Y, Nagai R. Hematopoietic stem cells differentiate into vascular cells that participate in the pathogenesis of atherosclerosis. Nat Med 2002; 8: 403-409). To put it briefly, a lethal dose of radiation (900 cGy) was applied to wild-type recipient C57BL/6 mice, and bone marrow cells (3×10^6 cells/300 μl) derived from the GFP mouse were transplanted through the tail vein. In order to quantify the reconstitution of mouse bone marrow, mononuclear cells and bone marrow cells in the peripheral blood were analyzed by flow cytometry four weeks after the bone marrow transplant. The percentages of the GFP-positive peripheral blood mononuclear cells and bone marrow cells in the chimeric mice were 87% to 93% and 85% to 90%, respectively, showing that the original stem cell group was replaced by the donor cell group.
Four weeks after the bone marrow transplant, swine pancreatic elastase (200 units/kg; Sigma, St. Louis, Mo.) was injected intratracheally to the chimeric mice. These mice were divided into two groups: the elastase-treated mice to be administered with physiological saline, and those to be administered with AM (each, n=5).
28 days after the injection of elastase (n=5) or saline solution (n=5), frozen sections were prepared from the lungs of the GFP-positive chimeric mice. The number of GFP-positive cells in the alveolar wall was counted and the result was indicated as the number per 100 alveoli. […] The numbers of GFP/cytokeratin double-positive cells and GFP/vWF double-positive cells were counted, and the results were indicated as the number per 100 alveoli. […]

[5] = elastase-treated mice, continuous AM infusion

For adrenomedullin [AM], the “number of vWF-positive lung blood vessels” value ([1]; elastase-administered lungs, AM vs physiological saline group) was “significantly increased”, the “histological changes (air space enlargement accompanied by destruction of the alveolar wall)” value ([1]; elastase-injected mice, continuous AM infusion) was “decreased” and the “average alveolar diameter (mean linear intercept): increase over the sham treated group” value [1, 5] was “reduced”. For the same substance, the “increase in static lung compliance” value [1, 5] was “significantly reduced”, the “magnitude of the increase in lung volume” value [1, 5] was “reduced” and the “number of the peripheral blood mononuclear cells” value ([2]; AM 1 μg/animal, intraperitoneal injection every day for five days, day 5) was 120 % of the physiological saline group. For the same substance, the “number of the peripheral blood mononuclear cells” value ([2]; AM 5 μg/animal, intraperitoneal injection every day for five days, day 5) was 140 % of the physiological saline group, the “number of the peripheral blood mononuclear cells (dose dependence)” value ([2]; AM 1, 2 or 5 μg intraperitoneal every day for five days, day 5) was “increased in a dose-dependent manner” and the “number of the peripheral blood mononuclear cells” value ([2]; continuous AM, subcutaneous osmotic mini-pump 0.05 μg/kg/min for five days, day 5) was 131 % of the physiological saline group. The “frequency of Sca-1-positive cells” value ([2]; continuous AM, subcutaneous osmotic mini-pump 0.05 μg/kg/min for five days, day 5, flow cytometry) was 200 % of the physiological saline group, the “regeneration of cardiac muscles by bone marrow-derived cells (GFP- and desmin-expressing cells)” value [3] was “significantly enhance” and the “revascularization by bone marrow cells (GFP- and vWF-expressing cells)” value [3] was “significantly increase”. The “number of GFP-positive cells incorporated in the lung (alveolar wall, per 100 alveoli)” value [4] was “significantly larger”, the “number of GFP/cytokeratin double-positive cells (per 100 alveoli)” value [4] was “significantly larger” and the “number of GFP/vWF double-positive cells in the alveolar wall” value [4] was “larger”.
